From article PMC3616060, “Full Inhibition of Spinal FAAH Leads to TRPV1-Mediated Analgesic Effects in Neuropathic Rats and Possible Lipoxygenase-Mediated Remodeling of Anandamide Metabolism” (PLoS ONE, 2013) come the findings set out here.

Assay [1] has as its target T1, transient receptor potential vanilloid-1 (TRPV1) (Rattus norvegicus, UniProt O35433).
T1 construct: rat recombinant TRPV1 stably expressed in HEK-293 cells
Put plainly: intracellular Ca2+ (Fluo-4) assay in HEK-293 cells expressing rat TRPV1. In kind it is cell-based.

For assay [2], the target named is T1, transient receptor potential vanilloid-1 (TRPV1). The assay is described as follows: intracellular Ca2+ (Fluo-4) assay in HEK-293 cells expressing rat TRPV1; much lower effect, if any, in wild-type cells or after I-RTX. In kind it is cell-based.

SMILES strings stand for the structures.

T1 sequence (O35433 whole entry): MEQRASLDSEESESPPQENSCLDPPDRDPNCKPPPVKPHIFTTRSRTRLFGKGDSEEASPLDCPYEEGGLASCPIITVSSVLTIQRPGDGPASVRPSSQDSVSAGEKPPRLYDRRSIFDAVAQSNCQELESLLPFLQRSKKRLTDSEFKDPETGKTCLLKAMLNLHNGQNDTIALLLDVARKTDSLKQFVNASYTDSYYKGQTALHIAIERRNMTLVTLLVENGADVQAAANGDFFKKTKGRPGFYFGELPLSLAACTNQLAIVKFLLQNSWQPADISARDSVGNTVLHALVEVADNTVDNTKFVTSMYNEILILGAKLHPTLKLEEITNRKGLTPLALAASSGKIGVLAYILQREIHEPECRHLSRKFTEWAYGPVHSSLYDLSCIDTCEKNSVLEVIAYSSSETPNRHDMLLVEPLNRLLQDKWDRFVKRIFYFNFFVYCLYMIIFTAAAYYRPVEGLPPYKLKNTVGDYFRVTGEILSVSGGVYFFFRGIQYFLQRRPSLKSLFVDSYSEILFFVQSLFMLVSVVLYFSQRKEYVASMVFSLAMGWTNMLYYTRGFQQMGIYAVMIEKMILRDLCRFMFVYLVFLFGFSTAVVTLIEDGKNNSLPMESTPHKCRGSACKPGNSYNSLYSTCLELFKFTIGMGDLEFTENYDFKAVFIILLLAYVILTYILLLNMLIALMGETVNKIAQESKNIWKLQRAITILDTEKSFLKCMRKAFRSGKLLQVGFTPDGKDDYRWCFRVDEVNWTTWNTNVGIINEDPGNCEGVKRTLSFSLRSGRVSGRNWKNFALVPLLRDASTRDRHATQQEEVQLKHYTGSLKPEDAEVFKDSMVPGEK

On to `CCCCC/C=C\C/C=C\C/C=C\C/C=C\CCCC(=O)NCCO` [AEA, anandamide], for which, in assay [1], the EC50 – broadly, the midpoint of the concentration-response curve – came out at 0.24 ± 0.03 µM.

In turn, `CCCCC[C@H](O)/C=C/C=C\C/C=C\C/C=C\CCCC(=O)NCCO` [15S-HAEA, 15(S)-hydroxy-AEA] yielded an EC50 in assay [2] of 11.3 ± 0.9 µM.
